# From PMC11995216, “End-to-End Backbone Cyclization Enhances Passive Permeability of bRo5 Oligomeric Depsipeptides with Nonlinear Size Dependence” (ACS Medicinal Chemistry Letters, 2025)
# Where “and” joins values, the source holds several entries; their conditions need not be identical. Equal entries are not always repeated. Where two headings read alike, the source gives them in different places.
# Tests used:
# [1] = UV detection
# [2] = initial concentration 500 uM, standard curve, UV detection
# [3] = calculated using Supplement Equation 1, UV detection
# in vitro = conditions: PAMPA, Papp
# PAMPA [4] = conditions: UV detection, initial concentration 500 uM
# PAMPA [5] = conditions: UV detection
# [6] = PAMPA, 500 uM
# [7] = Acceptor Concentration (uM) / experiment 1
# [8] = Acceptor Concentration (uM) / experiment 2
# [9] = Acceptor Concentration (uM) / experiment 3
# [10] = Acceptor Concentration (uM) / experiment 4
# [11] = Acceptor Concentration (uM) / experiment 5
# [12] = Acceptor Concentration (uM) / experiment 6
# [13] = Acceptor Concentration (uM) / experiment 7
# [14] = Acceptor Concentration (uM) / experiment 8
# [15] = Acceptor Concentration (uM) / experiment 9
# [16] = Acceptor Concentration (uM) / experiment 10
# [17] = Papp (x 10^-6 cm/s) / experiment 1
# [18] = Papp (x 10^-6 cm/s) / experiment 2
# [19] = Papp (x 10^-6 cm/s) / experiment 3
# [20] = Papp (x 10^-6 cm/s) / experiment 4
# [21] = Papp (x 10^-6 cm/s) / experiment 5
# [22] = Papp (x 10^-6 cm/s) / experiment 6
# [23] = Papp (x 10^-6 cm/s) / experiment 7
# [24] = Papp (x 10^-6 cm/s) / experiment 8
# [25] = Papp (x 10^-6 cm/s) / experiment 9
# [26] = Papp (x 10^-6 cm/s) / experiment 10
"% recovery ([1]; Well 1 / %R, Well 1)","% recovery ([1]; Well 2 / %R, Well 2)","% recovery ([1]; Well 3 / %R, Well 3)","% recovery ([1]; Well 4 / %R, Well 4)","% recovery ([1]; Well 5 / %R, Well 5)","%T ([3]; Well 1 / %T, Well 1)","%T ([3]; Well 2 / %T, Well 2)","%T ([3]; Well 3 / %T, Well 3)","%T ([3]; Well 4 / %T, Well 4)","%T ([3]; Well 5 / %T, Well 5)",Papp at 500 uM (in vitro) [×10⁻⁶ cm/s],SMILES,"donor concentration after incubation ([2]; Well 1 / [donor], Well 1)","donor concentration after incubation ([2]; Well 2 / [donor], Well 2)","donor concentration after incubation ([2]; Well 3 / [donor], Well 3)","donor concentration after incubation ([2]; Well 4 / [donor], Well 4)","donor concentration after incubation ([2]; Well 5 / [donor], Well 5)",Acceptor Concentration (PAMPA [4]; [7]) [µM],Acceptor Concentration (PAMPA [4]; [8]) [µM],Acceptor Concentration (PAMPA [4]; [9]) [µM],Acceptor Concentration (PAMPA [4]; [10]) [µM],also measured
87% and 98%,96% and 95%,97% and 86%,91% and 84%,89% and 95%,0.56% and 0.55%,0.51%,0.44% and 0.55%,0.52% and 0.62%,0.49% and 0.52%,4.3 ± 0.6,CCCCC[C@H](OC(=O)[C@@H](C)N(C)C(=O)OC(C)(C)C)C(=O)OCc1ccccc1 [Compound L1.1],339 µM and 383 µM,384 µM and 381 µM,406 µM and 335 µM,363 µM and 315 µM,360 µM and 379 µM,97.9,95.4,79.7,94.3,"Acceptor Concentration (PAMPA [4]; [11]): 84.7 µM; Acceptor Concentration (PAMPA [4]; [12]): 107 µM; Acceptor Concentration (PAMPA [4]; [13]): 95.8 µM; Acceptor Concentration (PAMPA [4]; [14]): 92.9 µM; Acceptor Concentration (PAMPA [4]; [15]): 107 µM; Acceptor Concentration (PAMPA [4]; [16]): 97.4 µM; Papp (PAMPA [5]; [17]): 4.67 ×10⁻⁶ cm/s; Papp (PAMPA [5]; [18]): 4.06 ×10⁻⁶ cm/s; Papp (PAMPA [5]; [19]): 3.27 ×10⁻⁶ cm/s; Papp (PAMPA [5]; [20]): 4.23 ×10⁻⁶ cm/s; Papp (PAMPA [5]; [21]): 3.87 ×10⁻⁶ cm/s; Papp (PAMPA [5]; [22]): 4.51 ×10⁻⁶ cm/s; Papp (PAMPA [5]; [23]): 4.1 ×10⁻⁶ cm/s; Papp (PAMPA [5]; [24]): 4.51 ×10⁻⁶ cm/s; Papp (PAMPA [5]; [25]): 5.45 ×10⁻⁶ cm/s; Papp (PAMPA [5]; [26]): 4.19 ×10⁻⁶ cm/s; Acceptor Concentration, Ave [6]: 95.2 µM; Δ % diffusion [6]: ↑22%"
86% and 89%,93% and 92%,91% and 85%,86% and 84%,85% and 86%,0.44% and 0.49%,0.47% and 0.46%,0.46%,0.49% and 0.46%,0.47% and 0.43%,3.54 ± 0.2,CCCCC[C@H](OC(=O)[C@@H](C)N(C)C(=O)[C@H](CCCCC)OC(=O)[C@@H](C)N(C)C(=O)[C@H](CCCCC)OC(=O)[C@@H](C)N(C)C(=O)OC(C)(C)C)C(=O)OCc1ccccc1 [Compound L1.3],358 µM,382 µM and 379 µM,378 µM and 351 µM,350 µM and 346 µM,351 µM and 360 µM,84.1,80.7,74.5,72.5,Acceptor Concentration (PAMPA [4]; [11]): 68.1 µM; Acceptor Concentration (PAMPA [4]; [12]): 71.8 µM; Acceptor Concentration (PAMPA [4]; [13]): 84 µM; Acceptor Concentration (PAMPA [4]; [14]): 79 µM; Acceptor Concentration (PAMPA [4]; [15]): 81.4 µM; Acceptor Concentration (PAMPA [4]; [16]): 75.6 µM; Papp (PAMPA [5]; [17]): 3.86 ×10⁻⁶ cm/s; Papp (PAMPA [5]; [18]): 3.52 ×10⁻⁶ cm/s; Papp (PAMPA [5]; [19]): 3.52 ×10⁻⁶ cm/s; Papp (PAMPA [5]; [20]): 3.49 ×10⁻⁶ cm/s; Papp (PAMPA [5]; [21]): 3.18 ×10⁻⁶ cm/s; Papp (PAMPA [5]; [22]): 3.34 ×10⁻⁶ cm/s; Papp (PAMPA [5]; [23]): 3.62 ×10⁻⁶ cm/s; Papp (PAMPA [5]; [24]): 3.46 ×10⁻⁶ cm/s; Papp (PAMPA [5]; [25]): 3.83 ×10⁻⁶ cm/s; Papp (PAMPA [5]; [26]): 3.57 ×10⁻⁶ cm/s; LogPapp [6]: -5.45 ± 0.02; Δ % diffusion [6]: ↑3%
